Assay results taken from paper PMC9696794, “Synthesis and Antimicrobial Activity of Short Analogues of the Marine Antimicrobial Peptide Turgencin A: Effects of SAR Optimizations, Cys-Cys Cyclization and Lipopeptide Modifications” (International Journal of Molecular Sciences, 2022).
Values after ≈ are worked out from the molar mass of the structure shown. Where a SMILES comes first, the peptide text is derived from it. Bridges are numbered along the chain shown (N, C = ends). The star is where a group is joined. Lauroyl = CCCCCCCCCCCC(=O)*; Octanoyl = CCCCCCCC(=O)*

Legend:
[1] = tested on: B. subtilis (Bs, ATCC 23857); experiment: microbe, parasite or virus in culture; type: cell-based, Bacillus subtilis; details: for Antimicrobial Activity (MIC) Gram + Bs: ATCC 23857, 24 h
How it was run: (§1)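 Cultures grown in Mueller–Hinton broth were adjusted by OD600 to 2.5–3 × 10^4 CFU/mL and mixed with two-fold peptide dilutions from 256 to 1 µg/mL. Plates were incubated at 35 °C with OD595 monitored every hour for 24 h.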

[2] = tested on: P. aeruginosa (Pa, ATCC 27853); experiment: microbe, parasite or virus in culture; type: cell-based, Pseudomonas aeruginosa; details: for Antimicrobial Activity (MIC) Gram − Pa: ATCC 27853, 24 h
How it was run: as §1

[3] = tested on: all bacterial strains; experiment: Antibacterial MIC assay, all bacterial strains together (range or geometric mean); type: cell-based; details: for GM (geometric mean of the MIC values against all bacterial strains): Table 1, six bacterial strains; for GM of MIC Tot. bact.: Table S3, all bacterial test strains, MIC >256 set to 256
How it was run: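 Broth microdilution in Mueller–Hinton broth against B. subtilis, C. glutamicum, S. aureus, S. epidermidis RP62A, E. coli and P. aeruginosa; inoculum 2.5–3 × 10^4 CFU/mL, 35 °C, OD595 read hourly for 24 h. MIC: lowest peptide concentration giving OD below 10% of growth control; geometric mean across strains, triplicate.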

[4] = tested on: A. pullulans (Ap); experiment: microbe, parasite or virus in culture; type: cell-based, Aurobasidium pollulans; details: 48 h
How it was run: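 Overnight cultures in potato dextrose broth with 2% glucose at 25–30 °C were diluted to approx. 4 × 10^5 spores/mL and mixed 1:1 with two-fold peptide dilutions plated at 256 to 1 µg/mL. After 48 h at room temperature, OD600 was read. MIC was the lowest concentration giving OD below 10% of the growth control, in triplicate.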

[5] = tested on: E. coli K12; experiment: Bacterial biosensor membrane integrity assay (luciferase, D-luciferin influx); type: cell-based, Escherichia coli
Source text: Changes in light emission of sensor bacteria constitutively expressing the bacterial lux operon or a eukaryotic luciferase can be used as a proxy for viability and membrane integrity, respectively. Light production of the viability biosensors represents metabolic activity of the bacteria. For the membrane integrity assay on the other hand, light production depends on the influx of the externally added D-luciferin, which at neural pH will not readily pass the intact plasma membrane. An initial increase in light production therefore corresponds with damage to the plasma membrane and a concomitant influx of D-luciferin, while a subsequent drop in light emission indicates diminishing ATP reserves of the dying sensor bacteria.
A membrane integrity assay was performed using two bacterial biosensors, B. subtilis 168 (ATCC 23857) and E. coli K12 (ATCC MC1061). Both strains carry the pCSS962 plasmid that contains a eukaryotic luciferase gene (lucGR), which originate from the click beetle Pyrophorus plagiophthalamus. The assay was performed as described previously. […] D-luciferin potassium salt (Synchem Inc., Elk Grove Village, IL, USA) was added to the cell suspension at a final concentration of 1 mM. Two-fold dilutions (final assay concentration of 50–1.56 µg/mL) of peptides dissolved in Milli-Q water were prepared and added (10 µL per well) to black round-bottom 96-well microtiter plates (Nunc). Milli-Q water served as a negative control used for the normalization purpose and CHX, having known membranolytic activity, was used as a positive control. The plates were loaded into a Synergy H1 Hybrid Reader and the background luminescence was monitored before aliquots (90 µL) of the cell suspension with D-luciferin were added, one well at the time, by an automatic injector. Light emission was recorded every second for 3 min. Each study was performed at least three times independently, and the figures show a representative dataset.

Structure (SMILES) | Antimicrobial Activity (MIC) Gram + Bs [1] [µg/mL] | Antimicrobial Activity (MIC) Gram − Pa [2] [µg/mL] | GM (geometric mean of the MIC values against all bacterial strains) [3] [µg/mL] | GM of MIC Tot. bact. [3] [µg/mL] | Antimicrobial Activity (MIC) Fungi Ap [4] [µg/mL] | effect in membrane integrity assay ([5]; E. coli K12, 25 µg/mL) | rise in luminescence in membrane integrity assay ([5]; E. coli K12, 50 µg/mL, delayed compared to chlorhexidine) [fold] | effect in membrane integrity assay ([5]; E. coli K12, concentrations lower than 25 µg/mL) | effect in membrane integrity assay ([5]; E. coli K12, 50 µg/mL) | MIC ([1]; Bacillus subtilis, ATCC23857, B. subtilis ATCC 23857, 24 h, read-out: Antimicrobial Activity (MIC) Gram + Bs) [µg/mL] | MIC ([2]; Pseudomonas aeruginosa, ATCC27853, P. aeruginosa ATCC 27853, 24 h, read-out: Antimicrobial Activity (MIC) Gram − Pa) [µg/mL] | MIC ([3]; read-out: GM (geometric mean of the MIC values against all bacterial strains)) [µg/mL] | MIC ([4]; Aureobasidium pullulans, A. pullulans, read-out: Antimicrobial Activity (MIC) Fungi Ap) [µg/mL]
CCCCCCCCCCCC(=O)N[C@H]1CSSC[C@@H](C(=O)N[C@@H](CCCCN)C(=O)N[C@@H](CC(C)C)C(N)=O)NC(=O)[C@H](CCCCN)NC(=O)[C@H](Cc2c[nH]c3ccccc23)NC(=O)CNC(=O)CNC(=O)[C@@H]2CCCN2C(=O)[C@H](CCCCN)NC(=O)[C@H](CCCCN)NC(=O)CNC1=O [Peptide C12-cTurg-1, C12 -(CGKKPGGWKC)KL-NH2] (Lauroyl-CGKKPGGWKCKL-NH2; disulfide 1-10) | 2 | 16 | 4 | 4 | 32 | further delayed response | 3.5 | no effect | – | – | – | – | –
CCCCCCCC(=O)N[C@H]1CSSC[C@@H](C(=O)N[C@@H](CCCCN)C(=O)N[C@@H](CC(C)C)C(N)=O)NC(=O)[C@H](CCCCN)NC(=O)[C@H](Cc2c[nH]c3ccccc23)NC(=O)CNC(=O)[C@H](Cc2c[nH]c3ccccc23)NC(=O)[C@H](Cc2c[nH]c3ccccc23)NC(=O)[C@H](CCCCN)NC(=O)[C@H](CCCCN)NC(=O)CNC1=O [Peptide C8-cTurg-2, C8- (CGKKWWGWKC)KL-NH2] (Octanoyl-CGKKWWGWKCKL-NH2; disulfide 1-10) | 2 | 8 | 4 | 4 | 16 | – | – | – | even further delayed rise in peak luminescence | – | – | – | –
[H]/N=C(\N/C(=N/[H])NCCCCCCNC(=N)NC(=N)Nc1ccc(Cl)cc1)Nc1ccc(Cl)cc1 [Chlorhexidine, reference compound] | – | – | – | – | – | – | – | – | – | 1.6 | 6.3 (≈ 12.5 µM) | 20 (≈ 39.6 µM) | 1
